The text below walks through data of patent US20080306076A1, “MODULATION OF CHEMOSENSORY RECEPTORS AND LIGANDS ASSOCIATED THEREWITH” (SENOMYX, INC., priority 2007, published 2008).

Substitutions are numbered along the chain they refer to.

The target in experiment [1] is T1, hT1R1 S306A (Homo sapiens, UniProt Q7RTX1, S306A).
T1 construct: expressed in transfected cells; host or cells: HEK293, transient transfection
T1 sequence (Q7RTX1 21-841 S306A): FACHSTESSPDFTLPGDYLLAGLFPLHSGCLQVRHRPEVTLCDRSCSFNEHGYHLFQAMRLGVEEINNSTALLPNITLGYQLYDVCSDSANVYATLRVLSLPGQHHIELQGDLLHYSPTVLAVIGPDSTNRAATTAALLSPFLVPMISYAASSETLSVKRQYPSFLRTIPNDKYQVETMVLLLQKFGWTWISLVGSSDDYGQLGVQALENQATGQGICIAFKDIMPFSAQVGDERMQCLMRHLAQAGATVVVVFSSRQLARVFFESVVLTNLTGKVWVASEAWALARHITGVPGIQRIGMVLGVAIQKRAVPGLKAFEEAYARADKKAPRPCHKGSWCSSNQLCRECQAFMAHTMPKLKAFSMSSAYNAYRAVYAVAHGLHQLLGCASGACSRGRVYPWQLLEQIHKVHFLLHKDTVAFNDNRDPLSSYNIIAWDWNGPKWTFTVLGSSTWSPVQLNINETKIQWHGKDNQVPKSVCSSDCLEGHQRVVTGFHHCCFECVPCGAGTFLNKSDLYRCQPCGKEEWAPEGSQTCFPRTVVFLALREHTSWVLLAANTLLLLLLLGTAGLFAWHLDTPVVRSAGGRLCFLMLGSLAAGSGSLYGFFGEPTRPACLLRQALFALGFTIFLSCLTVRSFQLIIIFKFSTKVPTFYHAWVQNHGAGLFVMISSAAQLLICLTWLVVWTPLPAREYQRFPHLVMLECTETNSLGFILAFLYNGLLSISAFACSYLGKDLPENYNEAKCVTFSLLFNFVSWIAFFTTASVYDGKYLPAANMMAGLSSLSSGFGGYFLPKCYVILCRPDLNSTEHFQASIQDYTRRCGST
T1 sequence (Q923K1 21-858 partner): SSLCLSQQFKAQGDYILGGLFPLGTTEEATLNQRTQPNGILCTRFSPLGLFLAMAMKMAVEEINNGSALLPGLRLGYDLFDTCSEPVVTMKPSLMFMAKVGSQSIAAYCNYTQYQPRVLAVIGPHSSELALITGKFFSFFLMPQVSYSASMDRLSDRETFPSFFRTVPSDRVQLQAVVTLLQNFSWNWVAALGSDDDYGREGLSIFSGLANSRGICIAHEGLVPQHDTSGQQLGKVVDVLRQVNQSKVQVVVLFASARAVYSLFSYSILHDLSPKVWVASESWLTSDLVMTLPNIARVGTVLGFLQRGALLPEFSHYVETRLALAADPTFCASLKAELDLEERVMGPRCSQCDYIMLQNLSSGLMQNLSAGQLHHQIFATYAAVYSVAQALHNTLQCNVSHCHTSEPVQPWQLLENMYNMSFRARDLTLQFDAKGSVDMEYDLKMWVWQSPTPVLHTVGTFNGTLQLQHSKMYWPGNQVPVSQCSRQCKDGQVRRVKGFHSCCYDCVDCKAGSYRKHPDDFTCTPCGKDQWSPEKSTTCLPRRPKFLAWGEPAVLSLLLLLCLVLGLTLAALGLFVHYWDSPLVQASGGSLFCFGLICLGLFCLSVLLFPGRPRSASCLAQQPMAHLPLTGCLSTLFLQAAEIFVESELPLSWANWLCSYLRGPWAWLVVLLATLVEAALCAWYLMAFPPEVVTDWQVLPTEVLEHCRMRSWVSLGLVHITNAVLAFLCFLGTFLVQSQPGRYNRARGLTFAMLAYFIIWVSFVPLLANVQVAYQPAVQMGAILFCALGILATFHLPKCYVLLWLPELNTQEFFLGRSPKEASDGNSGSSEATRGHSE
Briefly: Mutagenesis study, hT1R1 mutant S306A. The experiment is classed as cell-based. The note with it: S306 mutation. From the text:
(§1) In order to further define the interaction sites of umami stimuli, we performed site-directed mutagenesis on human T1R1 VFT. The mutagenesis was done using the routine PCR-based method. […] were transiently transfected into HEK293 cell together with the rat T1R3 wild type cDNA, and the transfected cells were characterized using an automated FLIPR machine or a calcium imaging system as described in our previous patent applications.

Experiment [2] addresses T2, hT1R1 R277A (Homo sapiens, UniProt Q7RTX1, R277A).
T2 construct: expressed in transfected cells; host or cells: HEK293, transient transfection
T2 sequence (Q7RTX1 21-841 R277A): T1 sequence (Q7RTX1 21-841 S306A) with R257A, A286S
T2 sequence (Q923K1 21-858 partner): T1 sequence (Q923K1 21-858 partner)
Briefly: Mutagenesis study, hT1R1 mutant R277A. The experiment is classed as cell-based. The note with it: R277 mutation.
Excerpt: as §1

Regarding `Nc1nc2c(ncn2[C@@H]2O[C@H](COP(=O)(O)O)[C@@H](O)[C@H]2O)c(=O)[nH]1` [GMP, guanosine-5′-monophosphate], the “enhancement activity of GMP” value in experiment [1] and in experiment [2] was “similarly affected” in each case.
